The values below come from paper PMC12530851, “Design, synthesis, and apoptotic antiproliferative activity of novel dihydropyrimidine-5-carbonitrile/1,2,4-oxadiazole hybrids as dual EGFR/VEGFR-2 inhibitors endowed with antioxidant activity” (RSC Advances, 2025).

SMILES strings stand for the structures.

Series [1] can be described thus: Cell viability assay (MTT) on normal MCF-10A cells. In kind it is cell-based. To be noted: human, MCF-10A mammary gland epithelial cells (normal cell line), MCF-10A normal cells, four-day incubation. On the procedure: The impact of novel compounds 10a–l on the viability of a normal human cell line, specifically human mammary gland epithelial cells (MCF-10A), was assessed to ascertain the safety of the newly synthesized compounds. The MTT test was employed to assess the cell viability of the novel compounds after a four-day incubation with MCF-10A cells.[29,37] Refer to Appendix A for more experimental details.
The effect of new compounds 10a–l on the viability of a normal human cell line, namely human mammary gland epithelial cells (MCF-10A), was evaluated to determine the safety of the newly synthesized compounds.
4.2. Biological evaluation
4.2.1 Cell Viability assay (MTT assay)
MTT assay was performed to investigate the effect of the synthesized compounds on mammary epithelial cells (MCF-10A). The cells were propagated in medium consisting of Ham's F-12 medium/ Dulbecco's modified Eagle's medium (DMEM) (1:1) supplemented with 10% foetal calf serum, 2 mM glutamine, insulin (10 μg/mL), hydrocortisone (500 ng/mL) and epidermal growth factor (20 ng/mL). Trypsin ethylenediamine tetra acetic acid (EDTA) was used to passage the cells after every 2-3 days. 96-well flat-bottomed cell culture plates were used to seed the cells at a density of 10^4 cells mL-1. The medium was aspirated from all the wells of culture plates after 24 h followed by the addition of synthesized compounds (in 200 μL medium to yield a final concentration of 0.1% (v/v) dimethyl sulfoxide) into individual wells of the plates. Four wells were designated to a single compound. The plates were allowed to incubate at 37°C for 96 h. Afterwards, the medium was aspirated and 3-[4,5-dimethylthiazol-2-yl]-2,5-diphenyltetrazolium bromide (MTT) (0.4 mg/mL) in medium was added to each well and subsequently incubated for 3 h. The medium was aspirated and 150 μL dimethyl sulfoxide (DMSO) was added to each well. The plates were vortexed followed by the measurement of absorbance at 540 nm on a microplate reader. […]

The test system of a further series is A-549 (lung cancer). Briefly: Antiproliferative assay, A-549. In kind it is cell-based. As to conditions: Homo sapiens, A549; A-549 lung cancer cells; read-out: Antiproliferative activity IC50 ± SEM, A-549. The text has this: (§1) The dose–response experiments established the IC50 values for the new compounds. The given findings were obtained from at least two distinct studies, each comprising three repeats per concentration. Appendix A (SI File) provides experimental details.[38,39]
(§2) The MTT assay[43] was utilized to assess the antiproliferative effects of compounds 10a–l on four human cancer cell lines: HT-29 (colon cancer), Panc-1 (pancreatic cancer), A-549 (lung cancer), and MCF-7 (breast cancer). […]
(§3) 4.2.2. Assay for antiproliferative effect
(§4) To explore the antiproliferative potential of compounds propidium iodide fluorescence assay was performed using different cell lines such as Panc-1 (pancreas cancer cell line), MCF-7 (breast cancer cell line), HT-29 (colon cancer cell line) and A-549 (epithelial cancer cell line), respectively. To calculate the total nuclear DNA, a fluorescent dye (propidium iodide, PI) is used which can attach to the DNA, thus offering a quick and precise technique. PI cannot pass through the cell membrane and its signal intensity can be considered as directly proportional to quantity of cellular DNA. Cells whose cell membranes are damaged or have changed permeability are counted as dead ones. The assay was performed by seeding the cells of different cell lines at a density of 3000-7500 cells/well (in 200μl medium) in culture plates followed by incubation for 24h at 37 °C in humidified 5%CO2/95% air atmospheric conditions. The medium was removed; the compounds were added to the plates at 10 μM concentrations (in 0.1% DMSO) in triplicates, followed by incubation for 48h. DMSO (0.1%) was used as control. After incubation, medium was removed followed by the addition of PI (25 μl, 50μg/mL in water/medium) to each well of the plates. At - 80 °C, the plates were allowed to freeze for 24 h, followed by thawing at 25 °C. A fluorometer (Polar-Star BMG Tech) was used to record the readings at excitation and emission wavelengths of 530 and 620 nm for each well. The percentage cytotoxicity of compounds was calculated using […]
(§5) Where ATC= Absorbance of treated cells and AC= Absorbance of control. Erlotinib was used as positive control in the assay. […]

The test system of a further series is MCF-7 (breast cancer). Put plainly: Antiproliferative assay, MCF-7. Type of series: cell-based, human. As to conditions: Homo sapiens, MCF7; MCF-7 breast cancer cells; read-out: Antiproliferative activity IC50 ± SEM, MCF-7.
Description: as §1, §2, §3, §4, §5

For series [2], the system named is Panc-1 (pancreatic cancer). Put plainly: Antiproliferative assay, Panc-1. As to conditions: Homo sapiens; Panc-1 pancreatic cancer cells; read-out: Antiproliferative activity IC50 ± SEM, Panc-1. In kind it is cell-based.
Description: as §1, §2, §3, §4, §5

In a further series the test system is HT-29 (colon cancer). Briefly: Antiproliferative assay, HT-29. Type of series: cell-based. To be noted: Homo sapiens; HT-29 colon cancer cells; read-out: Antiproliferative activity IC50 ± SEM, HT-29.
Description: as §1, §2, §3, §4, §5

Series [3] has as its system four human cancer cell lines (A-549, MCF-7, Panc-1, HT-29). Briefly: Antiproliferative assay, average over four cancer cell lines. Type of series: cell-based. As to conditions: for GI50: Homo sapiens, average IC50 across A-549, MCF-7, Panc-1, HT-29; for Reduction in antiproliferative potency relative to 10k (GI50): less potent than 10k. How it is done:
The given findings were obtained from at least two distinct studies, each comprising three repeats per concentration. Appendix A (SI File) provides experimental details.[38,39] […]
as §3
To explore the antiproliferative potential of compounds propidium iodide fluorescence assay was performed using different cell lines such as Panc-1 (pancreas cancer cell line), MCF-7 (breast […]
respectively. To calculate the total nuclear DNA, a fluorescent dye (propidium iodide, PI) is used which can attach to the DNA, thus offering a quick and precise technique. PI cannot pass through the cell membrane and its signal intensity can be considered as directly proportional to quantity of cellular DNA. Cells whose cell membranes are damaged or have changed permeability are counted as dead ones. The assay was performed by seeding the cells of different cell lines at a density of 3000-7500 cells/well (in 200μl medium) in culture plates followed by incubation for 24h at 37 °C […]
The medium was removed; the compounds were added to the plates at 10 μM concentrations (in 0.1% DMSO) in triplicates, followed by incubation for 48h. DMSO (0.1%) was used as control. After incubation, medium was removed followed by the addition of PI (25 μl, 50μg/mL in water/medium) to each well of the plates. At - 80 °C, the plates were allowed to freeze for 24 h, followed by thawing at 25 °C. A fluorometer (Polar-Star BMG Tech) was used to record the readings at excitation and emission wavelengths of 530 and 620 nm for each well. The percentage cytotoxicity of compounds was calculated using […]
Where ATC= Absorbance of treated cells and AC= Absorbance of control. […]
positive control in the assay. […]

The next series relates to caspase-3. Briefly: Caspase-3 activation assay in MCF-7 cells. Type of series: cell-based, human. To be noted: vs untreated control.
The next series has as its system caspase-8. Put plainly: Caspase-8 activation assay in MCF-7 cells. Type of series: cell-based, human. On the procedure: (§6) Compounds10k and 10l were tested as caspases-3, 8, 9, Bax and p53 activators and as down-regulators of the anti-apoptotic protein Bcl2 against the MCF-7 breast cancer cell line.[41] Appendix A gives more details.
(§7) To elucidate the apoptotic processes of compounds 10k and 10l, whether via the intrinsic or extrinsic pathway, their impacts on caspase-8 and caspase-9 were evaluated. […] This signifies the activation of both intrinsic and extrinsic pathways (Table 5).
(§8) 4.2.6. Caspase-8/9 activation assay
(§9) Cells were obtained from American Type Culture Collection, cells were grown in RPMI 1640 containing 10% fetal bovine serum at 37°C, stimulated with the compounds to be tested for caspase 8/9, and lysed with Cell Extraction Buffer. This lysate was diluted in Standard Diluent Buffer over the range of the assay and measured for human active caspase-8/9 content. (Cells are Plated in a density of 1.2 – 1.8 × 10,000 cells/well in a volume of 100µl complete growth medium + 100 ul of the tested compound per well in a 96-well plate for 24 hours before the enzyme assay). The absorbance of each microwell was read on a spectro-photometer at 450 nm. […]

A further series relates to caspase-9. Briefly: Caspase-9 activation assay in MCF-7 cells. In kind it is cell-based, human. On the procedure: as §6, §7, §8, §9

`N#Cc1c(-c2ccccc2)nc(SCc2nc(-c3ccccc3)no2)[nH]c1=O` [Compound 10a, 2-(((3-Phenyl-1,2,4-oxadiazol-5-yl)methyl)thio)-6-oxo-4-phenyl-1,6-dihydropyrimidine-5-carbonitrile] had a viability at 96 h, 50 µM in series [1] of 91%. The IC50 in the series on A-549 (lung cancer) worked out at 44 ± 3 nM; in the series on MCF-7 (breast cancer), 40 ± 3 nM; in [2] it was 42 ± 3 nM; in the series on HT-29 (colon cancer), 45 ± 3 nM. In [3], this compound gave a GI50 of 43 nM.
In [1], `N#Cc1c(-c2ccccc2)nc(SCc2nc(-c3ccc(Cl)cc3)no2)[nH]c1=O` [Compound 10b, 2-(((3-(4-Chlorophenyl)-1,2,4-oxadiazol-5-yl)methyl)thio)-6-oxo-4-phenyl-1,6-dihydropyrimidine-5-carbonitrile] showed a viability at 96 h, 50 µM of 90%. Moreover, the IC50 was 65 ± 5 nM in the series with A-549 (lung cancer), 61 ± 5 nM with MCF-7 (breast cancer), 61 ± 5 nM in [2] and 66 ± 5 nM in the series with HT-29 (colon cancer). Moreover, growth in series [3] was halved (GI50) at 63 nM. In series [3], the “Reduction in antiproliferative potency relative to 10k (GI50)” value is on record as 2.9 fold.
Compound `COc1ccc(-c2noc(CSc3nc(-c4ccccc4)c(C#N)c(=O)[nH]3)n2)cc1` [Compound 10c, 2-(((3-(4-Methoxyphenyl)-1,2,4-oxadiazol-5-yl)methyl)thio)-6-oxo-4-phenyl-1,6-dihydropyrimidine-5-carbonitrile] showed a viability at 96 h, 50 µM in series [1] of 92%. Further, the IC50 with A-549 (lung cancer) was determined as 49 ± 3 nM; in the series with MCF-7 (breast cancer) it was 44 ± 3 nM; in series [2] it was 44 ± 3 nM; in the series with HT-29 (colon cancer) it was 51 ± 3 nM. The compound also returned a GI50 in series [3] of 47 nM.
Consider `N#Cc1c(-c2ccncc2)nc(SCc2nc(-c3ccccc3)no2)[nH]c1=O` [Compound 10d, 2-(((3-Phenyl-1,2,4-oxadiazol-5-yl)methyl)thio)-6-oxo-4-(pyridin-4-yl)-1,6-dihydropyrimidine-5-carbonitrile], for which the viability at 96 h, 50 µM in series [1] was found to be 89%. In addition, the concentration for half-maximal inhibition (IC50) with A-549 (lung cancer) amounted to 56 ± 4 nM; in the series on MCF-7 (breast cancer), 51 ± 4 nM; in series [2] it was 53 ± 4 nM; in the series on HT-29 (colon cancer), 57 ± 4 nM. The GI50 in series [3] stood at 54 nM.
In the case of `COc1ccc(-c2noc(CSc3nc(-c4ccncc4)c(C#N)c(=O)[nH]3)n2)cc1` [Compound 10f, 2-(((3-(4-Methoxyphenyl)-1,2,4-oxadiazol-5-yl)methyl)thio)-6-oxo-4-(pyridin-4-yl)-1,6-dihydropyrimidine-5-carbonitrile], in [1], the viability at 96 h, 50 µM was found to be 91%. Further, the IC50 worked out at 52 ± 4 nM in the series with A-549 (lung cancer), 49 ± 3 nM in the series on MCF-7 (breast cancer), 50 ± 4 nM in series [2] and 54 ± 4 nM with HT-29 (colon cancer). This compound gave a GI50 in series [3] of 51 nM.
In the case of `N#Cc1c(-c2ccc(Cl)cc2)nc(SCc2nc(-c3ccccc3)no2)[nH]c1=O` [Compound 10g, 2-(((3-Phenyl-1,2,4-oxadiazol-5-yl)methyl)thio)-4-(4-chlorophenyl)-6-oxo-1,6-dihydropyrimidine-5-carbonitrile], the viability at 96 h, 50 µM in series [1] amounted to 90%. Moreover, the IC50 in the series with A-549 (lung cancer) was determined as 39 ± 2 nM; in the series on MCF-7 (breast cancer), 35 ± 2 nM; in series [2], 37 ± 2 nM; in the series with HT-29 (colon cancer) it was 40 ± 2 nM. For the same compound, it took 38 nM to inhibit growth in [3] by half (GI50).
`COc1ccc(-c2nc(SCc3nc(-c4ccccc4)no3)[nH]c(=O)c2C#N)cc1` [Compound 10j, 2-(((3-Phenyl-1,2,4-oxadiazol-5-yl)methyl)thio)-4-(4-methoxyphenyl)-6-oxo-1,6-dihydropyrimidine-5-carbonitrile] came in with a viability at 96 h, 50 µM in [1] of 89%. Also, the IC50 turned out to be 69 ± 5 nM with A-549 (lung cancer), 65 ± 5 nM with MCF-7 (breast cancer), 68 ± 5 nM in [2] and 70 ± 5 nM in the series on HT-29 (colon cancer). The compound further displayed a GI50 in [3] of 68 nM. Moreover, the “Reduction in antiproliferative potency relative to 10k (GI50)” value in series [3] came to 3 fold.
On to `C#Cc1cccc(Nc2ncnc3cc(OCCOC)c(OCCOC)cc23)c1` [Erlotinib, reference compound], for which the IC50 in the series on A-549 (lung cancer) came to 30 ± 3 nM; with MCF-7 (breast cancer), 40 ± 3 nM; in [2], 30 ± 3 nM; with HT-29 (colon cancer) it was 30 ± 3 nM.
Take `CN[C@@H]1C[C@H]2O[C@@](C)([C@@H]1OC)n1c3ccccc3c3c4c(c5c6ccccc6n2c5c31)C(=O)NC4` [Staurosporine, reference compound]: the “Caspase-3 Fold change” value in the series on caspase-3 stood at 7.00 fold. In addition, in the series on caspase-8, the “Caspase-8 Conc” value came out at 1.90 ± 0.10 ng/mL. In the series with caspase-8 (vs untreated control), the “Caspase-8 Fold change” value was 19.00 fold. Besides, the “Caspase-9 Conc” value in the series on caspase-9 amounted to 20 ± 1 ng/mL. Also, in the series with caspase-9 (vs untreated control), the “Caspase-9 Fold change” value is given as 20 fold.

The term viability denotes a read-out of living cells in per cent, often relative to untreated cells. For orientation: IC50 means the concentration at which inhibition is half-maximal. What is called GI50 is the concentration at which growth is held to half of that of the control. Low values mean greater sensitivity of the cells, high ones lower sensitivity of the cells.
